# From PubChem BioAssay AID1963875 (Molecular Pharmacology Branch, DTP, NCI, 2024)
# System: KRAS-mutant PDC complex spheroid viability
# Assay: Anticancer human tumor 186277-243-T-J2-PDC patient-derived colon adenocarcinoma cell line growth inhibition [KRAS2]
# Details: for IC50: curve of first compound; for viability, T/C: stronger effect = lower value
# Method in brief: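 Combination screen of spheroid viability in tumor-cell co-cultures with endothelial (HUVEC) and mesenchymal stem cell stroma. Each agent was tested in half-log dilutions, topping at clinical Cmax or at 10 microM without a known Cmax.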
# [1] = second compound 0.0316 µM, first compound 0.0316 µM
# [2] = second compound 0.0316 µM, first compound 0.1 µM
# [3] = second compound 0.0316 µM, first compound 0.316 µM
# [4] = second compound 0.0316 µM, first compound 1 µM
# [5] = second compound 0.0316 µM, first compound 3.16 µM
# [6] = second compound 0.1 µM, first compound 0.0316 µM
# [7] = second compound 0.1 µM, first compound 0.1 µM
# [8] = second compound 0.1 µM, first compound 0.316 µM
# [9] = second compound 0.1 µM, first compound 1 µM
# [10] = second compound 0.1 µM, first compound 3.16 µM
# [11] = second compound 0.316 µM, first compound 0.0316 µM
# [12] = second compound 0.316 µM, first compound 0.1 µM
# [13] = second compound 0.316 µM, first compound 0.316 µM
# [14] = second compound 0.316 µM, first compound 1 µM
# [15] = second compound 0.316 µM, first compound 3.16 µM
# [16] = second compound 1 µM, first compound 0.0316 µM
# [17] = second compound 1 µM, first compound 0.1 µM
# [18] = second compound 1 µM, first compound 0.316 µM
# [19] = second compound 1 µM, first compound 1 µM
# [20] = second compound 1 µM, first compound 3.16 µM
# [21] = second compound 3.16 µM, first compound 0.0316 µM
# [22] = second compound 3.16 µM, first compound 0.1 µM
# [23] = second compound 3.16 µM, first compound 0.316 µM
# [24] = second compound 3.16 µM, first compound 1 µM
# [25] = second compound 3.16 µM, first compound 3.16 µM
# [26] = second compound 0.0316 µM, first compound 10 µM
# [27] = second compound 0.1 µM, first compound 10 µM
# [28] = second compound 0.316 µM, first compound 10 µM
# [29] = second compound 1 µM, first compound 10 µM
# [30] = second compound 3.16 µM, first compound 10 µM
# 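Throughout, for viability, T/C: viability read after seven days of compound exposure; 100% = DMSO vehicle-treated spheroids so lower means less viable.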
Compound,IC50 (second compound 0.0316 µM),IC50 (second compound 0.1 µM),IC50 (second compound 0.316 µM),IC50 (second compound 1 µM),IC50 (second compound 3.16 µM),"viability, T/C [1]","viability, T/C [2]","viability, T/C [3]","viability, T/C [4]","viability, T/C [5]","viability, T/C [6]","viability, T/C [7]","viability, T/C [8]","viability, T/C [9]","viability, T/C [10]","viability, T/C [11]","viability, T/C [12]","viability, T/C [13]","viability, T/C [14]","viability, T/C [15]",other results
CC1COCCN1c1cc(-c2ccnn2C)c2ccnc(-c3ccn[nH]3)c2n1 (stereo not given) + C=CC(=O)N1CCN(c2nc(OCC3CCCN3C)nc3c2CCN(c2cccc4cccc(C)c24)C3)CC1CC#N,20.3 nM,19.8 nM,19 nM,18.3 nM,< 10 nM,25.8%,7.37%,5.84%,5.53%,6.31%,24.3%,7.71%,5.76%,5.41%,5.94%,21.6%,7.5%,5.3%,5.1%,5.45%,"viability, T/C (second compound 0.0316 µM, first compound 0.01 µM): 88.9%; viability, T/C (second compound 0.1 µM, first compound 0.01 µM): 87.5%; viability, T/C (second compound 0.316 µM, first compound 0.01 µM): 85.9%; viability, T/C (second compound 1 µM, first compound 0.01 µM): 91.2%; viability, T/C [16]: 12.7%; viability, T/C [17]: 7.23%; viability, T/C [18]: 5.64%; viability, T/C [19]: 4.81%; viability, T/C [20]: 4.49%; viability, T/C (second compound 3.16 µM, first compound 0.01 µM): 1.43%; viability, T/C [21]: 1.73%; viability, T/C [22]: 1.13%; viability, T/C [23]: 1.47%; viability, T/C [24]: 0.61%; viability, T/C [25]: 1.05%"
CC1OCC2(CCN(c3cnc(Sc4ccnc(N)c4Cl)c(N)n3)CC2)C1N (stereo not given) + C=CC(=O)N1CCN(c2nc(OCC3CCCN3C)nc3c2CCN(c2cccc4cccc(C)c24)C3)CC1CC#N,> 10000 nM,> 10000 nM,> 10000 nM,> 10000 nM,< 31.6 nM,111%,101%,108%,101%,102%,108%,112%,110%,103%,104%,113%,111%,102%,110%,102%,"viability, T/C [26]: 116%; viability, T/C [27]: 110%; viability, T/C [28]: 116%; viability, T/C [16]: 102%; viability, T/C [17]: 99.9%; viability, T/C [18]: 101%; viability, T/C [19]: 107%; viability, T/C [20]: 118%; viability, T/C [29]: 88.5%; viability, T/C [21]: 1.51%; viability, T/C [22]: 10%; viability, T/C [23]: 0.47%; viability, T/C [24]: 0.22%; viability, T/C [25]: 0.3%; viability, T/C [30]: 1.11%"
Cn1nccc1Nc1nccc(-c2cc3c(s2)C(C)(C)N(CCN2CCOCC2)C3=O)n1 + C=CC(=O)N1CCN(c2nc(OCC3CCCN3C)nc3c2CCN(c2cccc4cccc(C)c24)C3)CC1CC#N,409 nM,456 nM,344 nM,388 nM,< 31.6 nM,111%,96.7%,63%,5.23%,6.25%,105%,104%,70.2%,5.12%,9.32%,101%,97.1%,51.8%,15.8%,5.05%,"viability, T/C [26]: 6.65%; viability, T/C [27]: 6.37%; viability, T/C [28]: 7.23%; viability, T/C [16]: 91%; viability, T/C [17]: 88.6%; viability, T/C [18]: 59.1%; viability, T/C [19]: 8.02%; viability, T/C [20]: 4.02%; viability, T/C [29]: 4.26%; viability, T/C [21]: 10.1%; viability, T/C [22]: 1.3%; viability, T/C [23]: 0.45%; viability, T/C [24]: 0.51%; viability, T/C [25]: 0.15%; viability, T/C [30]: 0.16%"
